This is an account of results in US8217035B2, “Pyrimidine derivatives used as PI-3-kinase inhibitors” (Novartis AG, priority 2006, dated 2012).

As usually defined, the EC50 is the concentration needed to bring the measured effect to its halfway point. As usually defined, the IC50 is the concentration at which inhibition is half-maximal.

Molecules are shown by their SMILES. Like-named read-outs stand apart in the source and are kept apart here. A value given as a limit tells only on which side of the number the result lay.

Assay [1] deals with pSer473 Akt in A2780 cells. As to the kind of experiment: pSer473 Akt assay to monitor PI3K pathway in A2780 cells (Biological Method 2, MSD). The assay is classed as cell-based. As to conditions: Homo sapiens, inhibition of Akt phosphorylation. As for the experimental part: In this method, an assay for measuring the PI3K-mediated pSer473-Akt status after treatment with representative inhibitor compounds of the invention is described.
A2780 cells were cultured in DMEM supplemented with 10% FBS. L-glutamine, sodium pyruvate, and antibiotics. Cells were plated in the same medium at a density of 15,000 cells per well into 96 well tissue culture plates, with outside wells vacant, and allowed to adhere overnight.
Test compounds supplied in DMSO were diluted further into DMSO at 500 times the desired final concentrations before dilution into culture media to 2 times the final concentrations. Equal volumes of 2× compounds were added to the cells in 96 well plates and incubated at 37° C. for one hour. The media and compounds were then removed, the plates chilled and cells lysed in a lysis buffer (150 mM NaCl, 20 mM Tris pH 7.5, 1 mM EDTA, 1 mM EGTA, 1% Triton X-100) supplemented with phosphatase and protease inhibitors. After thorough mixing, lysates were transferred to both pSer473Akt and total Akt assay plates from Meso Scale Discovery (MSD), and incubated overnight with shaking at 4° C.
The assays were read on a SECTOR Imager 6000 instrument (Meso Scale Discovery). Ratios of the signal from pSer473Akt and total Akt assays were used to correct for any variability and the percent inhibition of pSer473Akt from the total signal seen in cells treated with compound versus DMSO alone was calculated and used to determine EC50 values for each compound.

The target in another assay is PI3 kinase alpha (Homo sapiens, UniProt P42336). The experiment in a line: PI3K ATP depletion assay (Biological Method 1, Assay 3; KinaseGlo luminescence). It is filed as biochemical. The settings on record: ATP depletion assay, read-out: PI3 Kinase Alpha, IC50. The method, boiled down: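 Compound in DMSO was mixed with 10 nM PI3 kinase and 5 μg/mL phosphatidylinositol, and the reaction was started with 2 μM ATP. It ran to about 50% ATP depletion and was stopped with KinaseGlo.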
PI3 kinase alpha, sequence (P42336 whole entry): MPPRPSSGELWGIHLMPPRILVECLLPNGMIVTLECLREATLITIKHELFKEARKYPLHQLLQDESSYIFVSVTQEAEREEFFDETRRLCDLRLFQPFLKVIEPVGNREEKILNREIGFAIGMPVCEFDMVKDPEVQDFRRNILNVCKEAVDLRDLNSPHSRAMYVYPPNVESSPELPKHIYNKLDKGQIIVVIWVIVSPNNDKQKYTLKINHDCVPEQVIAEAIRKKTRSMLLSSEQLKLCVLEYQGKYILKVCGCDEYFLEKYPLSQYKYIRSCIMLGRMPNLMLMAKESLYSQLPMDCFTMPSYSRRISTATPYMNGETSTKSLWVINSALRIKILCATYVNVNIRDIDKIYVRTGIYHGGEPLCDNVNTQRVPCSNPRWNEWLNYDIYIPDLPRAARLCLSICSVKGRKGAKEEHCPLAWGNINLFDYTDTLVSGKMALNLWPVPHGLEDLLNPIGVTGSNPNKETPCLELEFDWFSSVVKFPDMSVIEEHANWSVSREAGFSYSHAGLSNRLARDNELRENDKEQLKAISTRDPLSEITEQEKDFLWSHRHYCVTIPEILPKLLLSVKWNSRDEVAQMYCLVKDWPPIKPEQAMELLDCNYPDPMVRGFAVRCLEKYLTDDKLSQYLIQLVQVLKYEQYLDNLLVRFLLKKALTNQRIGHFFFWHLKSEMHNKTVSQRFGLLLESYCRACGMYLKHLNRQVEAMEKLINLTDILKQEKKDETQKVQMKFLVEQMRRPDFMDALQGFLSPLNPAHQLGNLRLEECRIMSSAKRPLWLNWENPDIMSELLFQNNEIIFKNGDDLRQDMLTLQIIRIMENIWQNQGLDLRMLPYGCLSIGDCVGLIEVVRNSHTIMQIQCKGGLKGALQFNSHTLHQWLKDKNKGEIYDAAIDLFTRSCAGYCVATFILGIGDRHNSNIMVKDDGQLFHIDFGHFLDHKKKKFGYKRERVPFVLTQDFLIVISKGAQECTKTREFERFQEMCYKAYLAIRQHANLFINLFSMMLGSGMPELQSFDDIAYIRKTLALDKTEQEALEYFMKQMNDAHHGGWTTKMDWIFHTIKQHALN
PI3 kinase alpha, sequence (P27986 whole entry partner): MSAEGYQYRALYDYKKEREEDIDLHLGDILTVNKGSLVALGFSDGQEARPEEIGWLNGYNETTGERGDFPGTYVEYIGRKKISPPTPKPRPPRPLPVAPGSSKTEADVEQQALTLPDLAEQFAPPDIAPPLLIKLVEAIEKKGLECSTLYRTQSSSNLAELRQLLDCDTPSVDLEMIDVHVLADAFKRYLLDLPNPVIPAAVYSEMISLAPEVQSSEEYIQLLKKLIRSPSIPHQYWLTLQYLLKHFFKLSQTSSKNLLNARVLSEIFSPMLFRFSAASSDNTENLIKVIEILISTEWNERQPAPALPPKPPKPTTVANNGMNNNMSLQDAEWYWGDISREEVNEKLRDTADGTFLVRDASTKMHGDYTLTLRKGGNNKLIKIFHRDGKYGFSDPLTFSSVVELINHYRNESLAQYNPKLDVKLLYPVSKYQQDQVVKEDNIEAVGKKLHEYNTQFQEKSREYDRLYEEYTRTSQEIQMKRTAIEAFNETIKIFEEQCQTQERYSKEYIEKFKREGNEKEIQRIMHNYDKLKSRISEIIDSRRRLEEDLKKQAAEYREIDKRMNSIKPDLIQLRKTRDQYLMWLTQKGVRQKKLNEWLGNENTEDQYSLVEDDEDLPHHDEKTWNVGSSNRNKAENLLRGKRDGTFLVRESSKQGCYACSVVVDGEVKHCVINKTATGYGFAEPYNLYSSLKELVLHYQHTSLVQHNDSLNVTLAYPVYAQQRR

The subject of assay [2] is A2780 ovarian cancer cells. The experiment in a line: Cellular proliferation in A2780 cells, Cell Titer Glo (Biological Method 4). The assay is classed as cell-based. The settings on record: Homo sapiens. The method, boiled down: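 A2780 cells seeded at 1,000/well in DMEM with 10% FBS, at least 2 h before compound, then exposed 72 h at 37 °C, 5% CO2. Viable cells measured by Cell Titer Glo luminescence; EC50 calculated from duplicate conditions.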

[3] abbreviates: ovarian cancer cell line A2780, Biological Method 4.

With `CC(=O)N1CCC[C@@H](Oc2cc(-c3cnc(N)nc3N)nc(N3CCOCC3)n2)C1` [Compound 29], the EC50 in assay [1] (A2780 cells) and in assay [2] (ovarian cancer cell line A2780) was less than 1000 nM throughout. The IC50 on PI3 kinase alpha was less than 1000 nM.
For the compound `CCOc1cc(Nc2cc(-c3cnc(N)cc3C(F)(F)F)nc(N3CCOCC3)n2)ccn1` [Compound 178], the concentration giving a half-maximal response (EC50) in assay [1] (A2780 cells) is less than 1000 nM; in assay [2] (ovarian cancer cell line A2780), less than 10000 nM. Besides, the IC50 at PI3 kinase alpha is less than 1000 nM.
In the case of `Nc1ncc(-c2cc(N3CCOCC3)nc(N3CCOCC3)n2)c(=O)[nH]1` [Compound 77], the EC50 in assay [1] (A2780 cells) and in assay [2] (ovarian cancer cell line A2780) was less than 1000 nM each time.
Regarding `Nc1cc(Cl)c(-c2cc(Nc3cnc4ccccc4c3)nc(N3CCOCC3)n2)cn1` [Compound 175], the EC50 in assay [1] (A2780 cells) and in assay [2] (ovarian cancer cell line A2780) was less than 1000 nM each time.
In the case of `Nc1ncc(-c2cc(Nc3ccc(Oc4ccccc4)nc3)nc(N3CCOCC3)n2)cn1` [Compound 107], the EC50 in assay [1] (A2780 cells) is less than 1000 nM; in assay [2] (ovarian cancer cell line A2780), less than 10000 nM.
Take `Nc1cc(C(F)(F)F)c(-c2cc(Nc3cnc4ccccc4c3)nc(N3CCOCC3)n2)cn1` [Compound 193]: the EC50 in assay [1] (A2780 cells) and in assay [2] (ovarian cancer cell line A2780) was less than 1000 nM in each case.
In turn, `CN(C)CCOc1ccc(Nc2cc(-c3ccc(N)nc3)nc(N3CCOCC3)n2)cn1` [Compound 198] came in with an EC50 in assay [1] (A2780, Biological Method 2) of less than 1000 nM. Besides, the IC50 on PI3 kinase alpha (Biological Method 1) is less than 1000 nM.
For `Nc1ncc(-c2cc(Nc3cnc4ccccc4c3)nc(N3CCOCC3)n2)cn1` [Compound 1], the EC50 in assay [1] (A2780 cells) and in assay [2] (ovarian cancer cell line A2780) was less than 1000 nM throughout.
For `Nc1ncc(-c2cc(N3CCOCC3)nc(N3CCOCC3)n2)cn1` [Compound 100], the EC50 in assay [1] (A2780 cells) and in assay [2] (ovarian cancer cell line A2780) was less than 1000 nM in each case.
Turning to `Nc1cc(Cl)c(-c2cc(N3CCOCC3)nc(N3CCOCC3)n2)cn1` [Compound 114], the EC50 is less than 1000 nM in assay [1] (A2780 cells) and less than 10000 nM in assay [2] (ovarian cancer cell line A2780).
As to `Nc1ncc(-c2cc(Nc3cnc4ccccc4c3)nc(N3CCOCC3)n2)c(C(F)(F)F)n1` [Compound 192], the EC50 in assay [1] (A2780 cells) and in assay [2] (ovarian cancer cell line A2780) was less than 1000 nM in each case.
As to `Nc1ncc(-c2ccnc(N3CCOCC3)n2)cn1` [Compound 132], the EC50 is less than 1000 nM in assay [1] (A2780 cells) and less than 10000 nM in assay [2] (ovarian cancer cell line A2780).
Regarding `Cc1nc(N)ncc1-c1cc(Nc2cnc3ccccc3c2)nc(N2CCOCC2)n1` [Compound 96], the EC50 in assay [1] (A2780 cells) and in assay [2] (ovarian cancer cell line A2780) was less than 1000 nM throughout.
With `Nc1ncc(-c2cc(N3CCOCC3)nc(N3CCOCC3)n2)c(C(F)(F)F)n1` [Compound 85], the EC50 in assay [1] (A2780 cells) and in assay [2] (ovarian cancer cell line A2780) was less than 1000 nM in each case.
For the compound `N#Cc1cc(N)ncc1-c1cc(Nc2cnc3ccccc3c2)nc(N2CCOCC2)n1` [Compound 5], the EC50 in assay [1] (A2780 cells) was less than 10000 nM; in assay [2] (ovarian cancer cell line A2780), less than 1000 nM.
Take `CN1CCC(Oc2ccc(Nc3cc(-c4cnc(N)nc4)nc(N4CCOCC4)n3)cn2)CC1` [Compound 37]: the EC50 in assay [1] (A2780 cells) and in assay [2] (ovarian cancer cell line A2780) was less than 1000 nM each time.
As for `Nc1ncc(-c2cc(Nc3cnc4ccccc4c3)nc(N3CCOCC3)n2)c(N)n1` [Compound 147], the EC50 in assay [1] (A2780 cells) and in assay [2] (ovarian cancer cell line A2780) was less than 1000 nM in each case.
With `Nc1ccc(-c2cc(Nc3ccc4c(c3)OCCO4)nc(N3CCOCC3)n2)cn1` [Compound 386], the IC50 on PI3 kinase alpha (Biological Method 1) was less than 1000 nM. For the same compound, the EC50 in assay [2] (setting [3]) was less than 10000 nM.
`Nc1ncc(-c2cc(C(F)(F)F)nc(N3CCOCC3)n2)cn1` [Compound 472]: the IC50 at PI3 kinase alpha is less than 1000 nM. Further, in assay [2] (ovarian cancer cell line A2780), the EC50 was less than 10000 nM.
For the compound `CS(=O)(=O)c1cccc(Nc2cc(-c3cnc(N)cc3C(F)(F)F)nc(N3CCOCC3)n2)c1` [Compound 238], the IC50 on PI3 kinase alpha (Biological Method 1) was less than 1000 nM. The compound further had an EC50 in assay [2] (setting [3]) of less than 10000 nM.
As for `Nc1cc(C(F)(F)F)c(-c2cc(Nc3ccc(-c4nn[nH]n4)nc3)nc(N3CCOCC3)n2)cn1` [Compound 282], the IC50 at PI3 kinase alpha (Biological Method 1) is less than 1000 nM. The same compound yielded an EC50 in assay [2] (setting [3]) of less than 25000 nM.
Regarding `CC(C)(C)OC(=O)N1CCC(Oc2cc(-c3cnc(N)cc3C(F)(F)F)nc(N3CCOCC3)n2)CC1` [Compound 456], the half-maximal inhibitory concentration (IC50) at PI3 kinase alpha is less than 1000 nM. Moreover, in assay [2] (ovarian cancer cell line A2780), the EC50 was less than 10000 nM.
